From patent publication US4358440A, “Polypeptide and its production and use” (Takeda Chemical Industries, Ltd., priority 1980, dated 1982)
Like-named read-outs stand apart in the source and are kept apart here. Residues, ends and D or L forms follow the SMILES beside them.

What was measured:
[1] = mice, intracerebral route; cited from earlier work
[2] = rats, intracerebral route; cited from earlier work
[3] = system: opiate receptor (brain); experiment: binding strength with the opiate receptor (brain); conditions: for binding strength with the opiate receptor (brain) relative to human beta-endorphin: times greater than human beta-endorphin; for binding activity relative to morphine: times greater than morphine
Method: The above experiment was carried out by the procedure as described in The Journal of Biological Chemistry, Vol. 254, No. 8, p. 2610 (1979).

[4] = result in words
[5] = analgesic action of the novel peptide; conditions: result in words; no test described

In the case of “beta-endorphin: brain peptide in mammals, a particularly important physiological peptide among the endorphins (YGGFMTSEKSQTPLVTLFKNAIIKNAYKKGE; Beta-endorphin; UniProt P01189 237-267, looked up)”, the analgesic effect [1] is listed as “exerts an analgesic effect” and the analgesic effect [2] is listed as “exerts an analgesic effect”.
In the case of `CC[C@H](C)[C@H](NC(=O)[C@H](Cc1c[nH]cn1)NC(=O)[C@H](CCCCN)NC(=O)[C@H](CC(C)C)NC(=O)[C@H](CC(C)C)NC(=O)[C@@H](NC(=O)[C@@H](NC(=O)[C@H](CC(C)C)NC(=O)[C@@H]1CCCN1C(=O)[C@H](CCCCN)NC(=O)[C@H](Cc1c[nH]cn1)NC(=O)[C@H](CO)NC(=O)[C@H](CCC(N)=O)NC(=O)[C@H](CCCCN)NC(=O)[C@@H](NC(=O)[C@H](Cc1ccc(O)cc1)NC(=O)[C@@H]1CCCN1C(=O)[C@H](CCCCN)NC(=O)[C@H](CCSC)NC(=O)[C@H](Cc1ccccc1)NC(=O)CNC(=O)CNC(=O)[C@H](Cc1ccc(O)cc1)NC(C)=O)[C@@H](C)O)[C@@H](C)CC)[C@@H](C)O)C(=O)N[C@H](C(=O)N[C@@H](CC(C)C)C(=O)N[C@@H](CCCCN)C(=O)N[C@@H](CC(N)=O)C(=O)N[C@@H](CCC(=O)O)C(=O)N[C@@H](CCC(N)=O)C(=O)O)[C@@H](C)O` [salmon endorphin, reference compound] (Ac-YGGFMKPYTKQSHKPLITLLKHITLKNEQ-OH), the “binding to the opiate receptor” value ([3]; result in words) is reported as “in no way binds to the opiate receptor”.
In the case of `CC[C@H](C)[C@H](NC(=O)[C@H](Cc1c[nH]cn1)NC(=O)[C@H](CCCCN)NC(=O)[C@H](CC(C)C)NC(=O)[C@H](CC(C)C)NC(=O)[C@@H](NC(=O)[C@@H](NC(=O)[C@H](CC(C)C)NC(=O)[C@@H]1CCCN1C(=O)[C@H](CCCCN)NC(=O)[C@H](Cc1c[nH]cn1)NC(=O)[C@H](CO)NC(=O)[C@H](CCC(N)=O)NC(=O)[C@H](CCCCN)NC(=O)[C@@H](NC(=O)[C@H](Cc1ccc(O)cc1)NC(=O)[C@@H]1CCCN1C(=O)[C@H](CCCCN)NC(=O)[C@H](CCSC)NC(=O)[C@H](Cc1ccccc1)NC(=O)CNC(=O)CNC(=O)[C@@H](N)Cc1ccc(O)cc1)[C@@H](C)O)[C@@H](C)CC)[C@@H](C)O)C(=O)N[C@H](C(=O)N[C@@H](CC(C)C)C(=O)N[C@@H](CCCCN)C(=O)N[C@@H](CC(N)=O)C(=O)N[C@@H](CCC(=O)O)C(=O)N[C@@H](CCC(N)=O)C(=O)O)[C@@H](C)O` [Compound (I), H-Tyr-Gly-Gly-Phe-Met-Lys-Pro-Tyr-Thr-Lys-Gln-Ser-His-Lys-Pro-Leu-Ile-Thr- Leu-Leu-Lys-His-Ile-Thr-Leu-Lys-Asn-Glu-Gln-OH] (H-YGGFMKPYTKQSHKPLITLLKHITLKNEQ-OH), the toxicity [4] is reported as “very low toxicity”, the “binding strength with the opiate receptor (brain) relative to human beta-endorphin” value ([3]; with the addition of sodium) is reported as “about 3.05 times” and the “binding activity relative to morphine” value ([3]; with the addition of sodium) is reported as “about 3.74 times”. For the same compound, the “binding strength with the opiate receptor (brain) relative to human beta-endorphin” value ([3]; without the addition of sodium) was “about 2.71 times”, the “binding activity relative to morphine” value ([3]; without the addition of sodium) was “about 4.6 times” and the analgesic action [5] was “excellent analgesic action”.
